Results on one compound are retold here after US9289446B2, “Myocardial perfusion imaging methods and compositions” (GILEAD SCIENCES, INC., priority 2002, dated 2016).

The structures appear in SMILES notation.

For series [1], the system named is heart rate (HR) and blood pressure (BP). In words: Example 5: heart rate, blood pressure and plasma catecholamines after i.v. bolus in awake rats (sympathoexcitation). Type of series: in vivo. How it is done: The present study was carried out to determine whether CVT-3146, a selective A2A adenosine receptor agonist, causes sympathoexcitation.
CVT (0.31 μg/kg-50 μg/kg) was given as a rapid i.v. bolus to awake rats and heart rate (HR) and blood pressure (BP) were monitored. CVT-3146 caused an increase in BP and systolic pressure (SP) at lower doses while at higher doses there was a decrease in BP and SP. […] The increase in HR was evident at the lowest dose of CVT at which there was no appreciable decrease in BP. ZM241385 (30 μg/kg, N=5), an A2A receptor antagonist, attenuated the decrease in BP (CVT-3146: 14±3%, ZM: 1±1%) and the increase in HR (CVT: 27±3%, ZM: 18±3%) caused by CVT-3146. Pretreatment with metoprolol (MET, 1 mg/kg, n=5), a beta-blocker, attenuated the increase in HR (CVT: 27±3%, MET: 15±2%), but had no effect on hypotension caused by CVT-3146. In the presence of hexamethonium (HEX, 10 mg/kg, n=5), a ganglionic blocker, the tachycardia was prevented (CVT: 27±3%, HEX: −1±2%), but BP was further reduced (CVT: −11±2%, HEX: −49±5%).

Series [2] is described as follows: Example 3: pharmacokinetic profile of CVT-3146 in healthy volunteers after single IV bolus (three-compartment model). Conditions: male, human, plasma, Total (doses 1-30 μg/kg), N=22, mean, read-out: VSS (volume of distribution at steady state). It is filed as in vivo. How it is done: This Example is a study performed to evaluate (1) the maximum tolerated dose of CVT-3146 and (2) the pharmacokinetic profile of CVT-3146 in healthy volunteers, after a single IV bolus dose.
The study was performed using thirty-six healthy, non-smoking male subjects between the ages of 18 and 59 and within 15% of ideal body weight.
CVT-3146 was administered as an IV bolus (20, seconds) in ascending doses of […], 10, 20, and 30 μg/kg.
Pharmacokinetics: • Plasma samples were drawn during supine phase (Days 1 and 2) at 0, 1, 2, 3, 4, 5, 7, 10, 15, 20, 30, 45 minutes after dosing and at 1, 1.5, 2, 4, 6, 8, 12 and 24 hours after dosing. Urine was collected for 24 hours for CVT-3146 excretion.
A three-compartment open model was fit to the data using observed Tmax (1-4 minutes) as the duration of a zero-order infusion. Reliable parameter estimates were obtained for dose of 1-30 μg/kg. Parameters are summarized in the following (Table 2): […]

Series [3] deals with coronary blood flow velocity (CBFv). In words: Example 1: open label study of CVT-3146 IV bolus on CBFv (Doppler flow wire) in patients undergoing coronary catheterization. It is filed as in vivo, humans. How it is done: The purpose of this open label study was to determine the magnitude and duration of effect of CVT-3146 (10-500 μg) on CBFv in humans.
METHODS: Patients undergoing a clinically indicated coronary catheterization with no more than a 70% stenosis in any coronary artery and no more than a 50% stenosis of the study vessel had CBFv determined by Doppler flow wire. Study subject were selected after measuring baseline and peak CBFv after an intracoronary (IC) injection of 18 μg of Ado. Twenty-three patients, who were identified as meeting the study criteria of having a peak to baseline CBFv ratio of ≧2.5 in response to Adenosine, received a rapid (<10 sec) peripheral IV bolus of CVT-3146; Doppler signals were stable and interpretable over the time-course of the increase in CBFv in 17 patients.

Series [4] has as its system blood flow in coronary, mesenteric, hind limb and renal vascular beds. In words: Example 8: vasodilator effects in different vascular beds (CBF, MBF, LBF, RBF) in awake dogs. The note with it: n=6, FIG. 18. Type of series: in vivo. How it is done: Example 8 employed a pharmaceutical composition consisting of an aqueous composition of 100 micrograms/mL CVT-3146 in 15% (w:v) propylene glycol and 100 mM phosphate buffer at pH 7 with 0.1% EDTA. The formulation was stored in type I glass vials at 5 mL per vial.
In this study the vasodilator effects of CVT-3146 were compared to those of ADO in different vascular beds in awake dogs. Dogs were chronically instrumented for measurements of the blood flow in coronary (CBF), mesenteric (MBF), hind limb (LBF), and renal (RBF) vascular beds, and hemodynamics.

Series [5] concerns coronary blood flow velocity. In words: Example 2: dose-ranging study of CVT-3146 IV bolus as coronary vasodilator (coronary flow velocity, heart rate, blood pressure, adverse events). Type of series: in vivo, human. An excerpt:
This example is a study performed to determine the range of dosages over which the selective A2A receptor agonist, CVT-3146 can be administered and be effective as a coronary vasodilator.
The study included patients undergoing a clinically indicated coronary catheterization with no more than a 70% stenosis in any coronary artery and no more than a 50% stenosis of the study vessel had CBFv determined by Doppler flow wire. Study subject were selected after measuring baseline and peak CBFv after an intracoronary (IC) injection of 18 μg of Ado. 36 subjects were identified as meeting the study criteria of having a peak to baseline CBFv ration of ≧2.5 in response to Adenosine,
CVT-3146 was administered to the study subjects by IV bolus in less that 10 seconds in amounts ranging from 10 μg to 500 μg.
The effectiveness of both compounds was measured by monitoring coronary flow velocity. Other coronary parameters that were monitored included heart rate and blood pressure. These parameters were measured in order to evaluate the time to peak dose response, the magnitude of the dose response and the duration of the dose response. Adverse events were also monitored. Coronary blood flow velocity was measured at the left anterior descending coronary artery (LAD) or left circumflex coronary artery (LCx). The velocity measurements were taken by following standard heart catheterization techniques and inserting a 0.014 inch Doppler-tipped Flowire into the LAD or LCx vessel and thereafter monitoring blood flow velocity. In addition, hemodynamic and electrocardiographic measurements were recorded continuously.
Overall, 36 human subjects (n=36) were evaluated. Of the 36, 18 were female and 18 were male. Their mean age was 53.4 and they ranged from 24-72 years in age. Of the 36 subjects evaluated, the LAD vessel of 31 subjects was monitored, and the LCx vessel of 5 subjects was monitored. The following doses (μg) of CVT-3146 were given to the subjects in a single iv bolus: 10 (n=4); 30 (n=6); 100 (n=4); 300 (n=7); 400 (n=9); 500 (n=6).

Regarding `CNC(=O)c1cnn(-c2nc(N)c3ncn([C@@H]4O[C@H](CO)[C@@H](O)[C@H]4O)c3n2)c1` [CVT-3146, (1-{9-[(4S,2R,3R,5R)-3,4-dihydroxy-5-(hydroxymethyl)oxolan-2-yl]-6-aminopurin-2-yl}pyrazol-4-yl)-N-methylcarboxamide], the “effect on HR over dose” value in series [1] (0.31 μg/kg-50 μg/kg rapid i.v. bolus) was “dose-dependent increase in HR”. Moreover, in series [1] (CVT-3146 alone (comparison with ZM241385), awake rats), the “decrease in BP caused by CVT-3146” value is listed as 14±3%. In addition, the “change in BP caused by CVT-3146” value in series [1] (CVT-3146 alone (comparison with hexamethonium)) is −11±2%. In addition, the “increase in HR caused by CVT-3146” value in series [1] (CVT-3146 alone, awake rats) was 27±3%. The Vd in series [2] came out at 75.5 L. Also, in series [3] (500 μg (n=3)), the “maximal decrease in systolic blood pressure (BP)” value amounted to 8.7±7.6 and the “maximal increase in heart rate (HR)” value was determined as 18.7±4.0. In addition, in series [3] (500 μg dose, 3 patients), the “adverse events (AEs)” value is recorded as “No AEs were noted”. In addition, the “adverse events (AEs)” value in series [3] (10-500 μg IV bolus) was “infrequent and included nausea, flushing, and headache; these were mild and self-limited”. The “time at which increase in CBFv was near peak, post onset of bolus” value in series [3] (IV bolus, humans) lay within 30 to 40 s. In series [4], the “increase in hind limb blood flow (LBF) compared to ADO” value was “smaller increase in LBF than ADO”. Also, in series [5] (400 μg IV bolus), the “time of maximum decrease in diastolic BP after dosing” value is listed as “about 1 minute”, the “time of maximum decrease in systolic BP after dosing” value was “about 1 minute” and the “time of maximum increase in heart rate after dosing” value is “about 1 minute”. Moreover, the “peak effects compared with adenosine” value in series [5] (doses above about 100 μg) is recorded as “equivalent to 18 μg adenosine administered IC”.
